We go through three compounds from publication PMC7914117, “Ginkgolic acid and anacardic acid are specific covalent inhibitors of SARS-CoV-2 cysteine proteases” (Cell & Bioscience, 2021).

For one data set, the target named is SARS-CoV-2 PL^pro (Severe acute respiratory syndrome coronavirus 2, UniProt P0DTD1). The data set is described as follows: SARS-CoV-2 PLpro fluorescence-based enzymatic inhibition assay (Z-RLRGG-AMC substrate). The note with it: for IC50: mean ± SD, triplicate, read-out: IC50 against PL^pro enzymatic activity; for inhibition at 20 µM: read-out: inhibition against PL^pro in high-throughput screen. Type of data set: biochemical.

The target of the next data set is SARS-CoV-2 3CL^pro (Severe acute respiratory syndrome coronavirus 2, UniProt P0DTD1). The data set is described as follows: SARS-CoV-2 3CLpro FRET enzymatic inhibition assay. Type of data set: biochemical. Conditions: for IC50: 250 nM 3CLpro, 4 mM DTT, 30 min pre-incubation, 50 µM substrate, mean ± SD, triplicate, read-out: IC50 against 3CL^pro enzymatic activity; for IC50 shift upon addition of reducing reagent: 3CLpro assay in absence or presence of 4 mM DTT; for sensitivity of 3CLpro compared to PLpro: ratio of IC50 values, PLpro vs 3CLpro. Here is the method:
The SARS-CoV-2 3CL^pro was prokaryotic expressed and purified as previously described with slight modification. For enzymatic inhibition assay, the recombinant 3CL^pro (250 nM at a final concentration) was incubated with increasing concentrations of each compound in 90 µL reaction buffer (50 mM Tris–HCl, pH 7.3, 1 mM EDTA, 4mM DTT) for 30 min [6]. The reaction was initiated by adding 10 µL FRET-based peptidic substrate (Dabcyl-KTSAVLQ/SGFRKME-Edans) with a final concentration of 50 µM. The fluorescence signal was immediately measured every 20 s for 30 min using a Bio-Tek Synergy4 plate reader with filters for excitation at 336/20 nm and emission at 490/20 nm. The V0 of reactions were calculated to indicate the enzymatic activities. Three independent experiments were performed and IC50 curves were analyzed using four-parameter logistic regression in GraphPad Prism software.
For mechanism of action study, various concentrations of ginkgolic acid were mixed and incubated with increasing concentrations of 3CL^pro (100–1000 nM) in 90 µL reaction buffer for 30 min. Reactions were initiated by adding 10 µL substrate with a final concentration of 50 µM. At each concentration of ginkgolic acid, the V0s were plotted with the concentrations of 3CL^pro, and the data was fitted using linear regression analysis in GraphPad Prism software.

The nature of data set [1]: Cell-Titer Glo cytotoxicity assay. Type of data set: cell-based. The note with it: African green monkey, Vero-E6 cells; for CC50 at 48 h: mean ± SD, triplicate; for viability at 48 h, 20 µM: at 20 µM. Here is the method:
(§1) To estimate the cytotoxicity of test compounds on VERO-E6 cells, Cell-Titer Glo® luminescent cell viability assay (Promega) was performed according to the manufacturer’s instruction. […] The half of the cytotoxic concentration (CC50) values were calculated from the percentages of cells whose viability was inhibited by test compounds at various concentrations.

The next data set has as its system Vero-E6 cells. The data set is described as follows: Cell-Titer Glo cytotoxicity assay. Type of data set: cell-based. The note with it: 48 h, mean ± SD, triplicate. Here is the method: as §1
Where [2] appears, read: 100 nM PLpro, 4 mM DTT, 30 min pre-incubation, 30 µM substrate.
Setting [3] is: compounds at 20 µM, 100 nM PLpro, 30 min pre-incubation, 4 mM DTT, 30 µM substrate, RFU at 10 min.

By IC50 is commonly meant the point on the concentration scale where inhibition reaches its midpoint. For orientation: inhibition means the percentage by which the read-out fell short of the control. By CC50 is commonly meant the concentration at which the toxic effect on the cells reaches its halfway point. A lower CC50 goes with harm at low concentration. Usually viability stands for the share of living cells, or the viability signal relative to a control. A high value points to better survival.

`CCCCCC/C=C\CCCCCCCc1cccc(O)c1C(=O)O` [ginkgolic acid]: the IC50 on SARS-CoV-2 PL^pro (setting [2]) was found to be 16.3 ± 0.64 µM. For the same compound, the “type of enzymatic inhibition of PL^pro” value on SARS-CoV-2 PL^pro (V0 vs enzyme concentration (25–150 nM) at different inhibitor concentrations) is listed as “irreversible inhibitor”. Besides, the inhibition at 20 µM at SARS-CoV-2 PL^pro (setting [3]) was more than 50%. At SARS-CoV-2 3CL^pro, the half-inhibitory concentration (IC50) turned out to be 1.79 ± 0.58 µM, the “IC50 shift upon addition of reducing reagent” value was “no significant IC50 shift” and the “sensitivity of 3CLpro compared to PLpro” value is given as “about 10 times”. The “type of enzymatic inhibition of 3CL^pro” value on SARS-CoV-2 3CL^pro (V0 vs enzyme concentration (100–1000 nM) at different inhibitor concentrations) is “irreversible inhibitor”. In data set [1], this compound came in with a CC50 at 48 h of 27.9 ± 0.77 µM and a viability at 48 h, 20 µM of more than 90%. This compound returned a CC10 in the data set on Vero-E6 cells of 21.38 ± 0.52 µM.
Regarding `C/C1=C2/[N-][C@H]([C@H](CC(N)=O)[C@@]2(C)CCC(=O)NC[C@@H](C)OP(=O)([O-])O[C@H]2[C@@H](O)[C@@H](n3cnc4cc(C)c(C)cc43)O[C@@H]2CO)[C@]2(C)N=C(/C(C)=C3N=C(/C=C4N=C1[C@@H](CCC(N)=O)C\4(C)C)[C@@H](CCC(N)=O)[C@]\3(C)CC(N)=O)[C@@H](CCC(N)=O)[C@]2(C)CC(N)=O.[CH3-].[Co+3]` [methylcobalamin, reference compound], the “inhibition against PL^pro in high-throughput screen” value at SARS-CoV-2 PL^pro (setting [3]) was “more than 50%”.
For `CCCCCCCCCCCCCCCc1cccc(O)c1C(=O)O` [anacardic acid], the IC50 at SARS-CoV-2 PL^pro (setting [2]) came to 17.1 ± 1.3 µM. In addition, the inhibition at 20 µM on SARS-CoV-2 PL^pro (setting [3]) is more than 50%. On SARS-CoV-2 3CL^pro, the IC50 came to 2.07 ± 0.35 µM, the “IC50 shift upon addition of reducing reagent” value is reported as “no significant IC50 shift” and the “sensitivity of 3CLpro compared to PLpro” value was “about 10 times”. In data set [1], this compound returned a CC50 at 48 h of 25.5 ± 0.69 µM and a viability at 48 h, 20 µM of more than 90%. For the same compound, the CC10 with Vero-E6 cells is 22.27 ± 0.26 µM.
